This passage reports Emax and EC50 results from US9416141B2 (University of Washington through its Center for …, priority 2012, dated 2016).

Counter-ions that a name gives are not always drawn.

This experiment deals with hair cells. Nature of the experiment: Hair cell toxicity assay in zebrafish (neomycin-induced hair cell death, DASPEI staining of neuromasts). The class given is in vivo. Conditions: Danio rerio; for Emax at 25 µM: maximum observed @ 25 μM test compound; for EC50: zebrafish larvae 5-7 dpf, 1 h pre-treatment, then 200 micromolar neomycin + test compound 30 min, read-out: HC50 (concentration that would produce 50% hair cell survival); for Emax at 2.8 µM: maximum observed @ 2.8 μM test compound. Put shortly: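 Hair cell survival, as % of untreated controls, came from DASPEI scoring (0-2 each, ten neuromasts on one side) in 5-7 dpf larvae. These had 1 h compound pre-exposure (0.010-25 μM), then 200 μM neomycin with compound for 30 min. HCmax is peak protection; HC50 interpolated between flanking concentrations only when ≥50% survive.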

Where [1] appears, read: 200 micromolar neomycin, read-out: Max HC Protection (HCmax, % hair cell survival).

As to `COCCCN1CCc2c(sc(NC(=O)Nc3ccc(Cl)cc3)c2C(N)=O)C1` [Example 3, 2-[3-(4-Chlorophenyl)ureido]-6-(3-methoxypropyl)-4,5,6,7-tetrahydrothieno[2,3-c]pyridine-3-carboxamide hydrochloride], the EC50 lay in the range of 1 to 10 µM. Further, under setting [1], the Emax at 25 µM amounted to 76%. Regarding `CCN1CCc2c(sc(NC(=O)Nc3ccc(C(=O)O)cc3)c2C(N)=O)C1` [Example 32, 4-[3-(3-Carbamoyl-6-ethyl-4,5,6,7-tetrahydrothieno[2,3-c]pyridin-2-yl)ureido]benzoic acid trifluoroacetate], the Emax at 25 µM under setting [1] worked out at 19%.

In the case of `COC(=O)CCC[N+]1(C)CCc2c(sc(NC(=O)Nc3ccc(Cl)cc3)c2C(N)=O)C1` (stereo not shown) [Example 158, 3-Carbamoyl-2-[3-(4-chlorophenyl)ureido]-6-(4-methoxy-4-oxobutyl)-6-methyl-4,5,6,7-tetrahydrothieno[2,3-c]pyridin-6-ium iodide], the EC50 lay within 1 to 10 µM. The Emax at 25 µM under setting [1] was 80%.

In the case of `C[N+]1(CC2CCC2)CCc2c(sc(NC(=O)Nc3ccc(Cl)cc3)c2C(N)=O)C1` (stereo not shown) [Example 145, 3-Carbamoyl-2-[3-(4-chlorophenyl)ureido]-6-(cyclobutylmethyl)-6-methyl-4,5,6,7-tetrahydrothieno[2,3-c]pyridin-6-ium iodide], the EC50 was under 1 µM. Further, under “maximum observed @ 8.3 μM test compound, 200 micromolar neomycin, read-out: Max HC Protection (HCmax, % hair cell survival)”, the Emax at 8.3 µM amounted to 95%. For the compound `CCN1CCc2c(sc(N(CC)C(=O)Nc3ccc(Cl)cc3)c2C(N)=O)C1` [Example 113, 2-[3-(4-chlorophenyl)-1-ethylureido]-6-ethyl-4,5,6,7-tetrahydrothieno[2,3-c]pyridine-3-carboxamide hydrochloride], the Emax at 2.8 µM under setting [1] was determined as 12%. The same measure, in the same setting: with `CC(C)(C)OC(=O)C1CC(N2CCc3c(sc(NC(=O)Nc4ccc(Cl)cc4)c3C(N)=O)C2)C1` (stereo not shown) [Example 22, tert-Butyl 3-{3-carbamoyl-2-[3-(4-chlorophenyl)ureido]-4,5-dihydrothieno[2,3-c]pyridin-6(7H)-yl}cyclobutanecarboxylate] the figure was 22%. On to `CCN1CCc2c(sc(NC(=O)Nc3ccc(CC(=O)O)cc3)c2C(N)=O)C1` [Example 33, 2-{4-[3-(3-Carbamoyl-6-ethyl-4,5,6,7-tetrahydrothieno[2,3-c]pyridin-2-yl)ureido]phenyl}acetic acid trifluoroacetate], for which the Emax at 0.93 µM (maximum observed @ 0.93 μM test compound, 200 micromolar neomycin, read-out: Max HC Protection (HCmax, % hair cell survival)) is 9%.
